Experimental data reported in ChEMBL document CHEMBL3886748, “Indazole derivatives useful as ERK inhibitors” (2016).

Target: Mitogen-activated protein kinase 1 (Mus musculus, UniProt P63085)
Assay: Active ERK2 (aERK) Assay: Activated ERK2 activity was also determined in the IMAP assay format using the procedure outlined above. 1 μl of 25× compound was added to 14 μl of kinase buffer containing 0.25 ng fully phosphorylated, active Mouse ERK2 protein. Following a 30 minute incubation, the reactions were initiated by addition of 10 μl of kinase buffer containing 1 μM ERK2 IMAP substrate peptide (0.9 μM unlabeled IPTTPITTTYFFFK-CONH2 and 100 nM IPTTPITTTYFFFK(5-carboxyfluorescein)-CONH2) and 30 μM ATP. Reactions proceeded for 30 minutes before termination by addition of 60 μl IMAP detection beads in binding buffer. Plates were read as above after 30 minute binding equilibration. Active compounds were reconfirmed in an independent assay.

Sequence of Mitogen-activated protein kinase 1 (P63085 whole entry): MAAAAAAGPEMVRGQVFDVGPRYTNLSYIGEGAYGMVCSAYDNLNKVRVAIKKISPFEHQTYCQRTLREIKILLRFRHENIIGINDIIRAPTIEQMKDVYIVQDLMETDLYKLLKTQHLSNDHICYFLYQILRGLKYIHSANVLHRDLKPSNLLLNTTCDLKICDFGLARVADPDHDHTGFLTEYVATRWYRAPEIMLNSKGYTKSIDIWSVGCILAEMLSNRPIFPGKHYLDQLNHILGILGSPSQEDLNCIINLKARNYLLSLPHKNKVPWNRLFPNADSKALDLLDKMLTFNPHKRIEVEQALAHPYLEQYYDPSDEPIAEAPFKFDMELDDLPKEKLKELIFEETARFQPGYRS

Structure (SMILES) | IC50 [nM]
Cc1cc(-c2n[nH]c3ccc(C(=O)N[C@H]4CCC[C@@](O)(Cn5cc6cc(F)ccc6n5)C4)cc23)ccn1 (relative stereo) | 772
Cc1cc(-c2n[nH]c3ccc(C(=O)N[C@@H]4CCC[C@](O)(Cn5cc6cccnc6n5)C4)cc23)ccn1 (relative stereo) | 404
